Laboratory results taken from patent publication US10570129B2 (Zoetis Services LLC, priority 2015, dated 2020).

How the values were obtained:
Haemonchus contortus L3 = experiment: microbe, parasite or virus in culture; format: cell-based; conditions: Haemonchus contortus, 96 h, read-out: HcL3 Minimal Effective Concentration (MEC)
D. immitis microfilariae = experiment: Dirofilaria immitis, microfilariae (DiMF) in vitro motility assay; format: cell-based; conditions: Dirofilaria immitis, 72 h, read-out: DiMF minimally effective dose (MEC)
[1] = system: Trichostrongylus colubriformis; experiment: Jird efficacy model; format: in vivo; conditions: Trichostrongylus colubriformis, sc, 96 h, read-out: Jird % (percentage efficacy)

Row | Compound | minimal effective concentration (Haemonchus contortus L3) | minimal effective concentration (D. immitis microfilariae) | inhibition in vivo at 10 mg/kg [1]
1 | O=C(NCc1ccnc(F)c1)n1c2c(c3cc(F)c(Cl)cc31)CN(C/C=C/c1ccc(Cl)cc1)CC2 [Example 317, (E)-7-chloro-2-(3-(4-chlorophenyl)allyl)-8-fluoro-N-((2-fluoropyridin-4-yl)methyl)-1,2,3,4-tetrahydro-5H-pyrido[4,3-b]indole-5-carboxamide] | 1 µM | 18.2 µM | 100%
2 | N#Cc1ccc2c3c(n(C(=O)NCc4ccnc(Cl)c4)c2c1)CCN(C/C=C/c1cc(F)cc(F)c1)C3 [Example 30, (E)-N-((2-chloropyridin-4-yl)methyl)-7-cyano-2-(3-(3,5-difluorophenyl)allyl)-1,2,3,4-tetrahydro-5H-pyrido[4,3-b]indole-5-carboxamide] | 0.5 µM | 10 µM | 100%
3 | O=C(NCc1ccnc(F)c1)n1c2c(c3cc4c(cc31)COC4)CN(C/C=C/c1ccc(Cl)cc1)CC2 [Example 483, (E)-8-(3-(4-chlorophenyl)allyl)-N-((2-fluoropyridin-4-yl)methyl)-1,3,6,7,8,9-hexahydro-5H-furo[3,4-f]pyrido[4,3-b]indole-5-carboxamide] | 0.5 µM | 3.3 µM | 100%
4 | N#Cc1ccc2c(c1)c1c(n2C(=O)NCc2ccnc(C(F)(F)F)c2)CCN(C/C=C/c2ccc(Cl)cc2F)C1 [Example 128, (E)-2-(3-(4-chloro-2-fluorophenyl)allyl)-8-cyano-N-((2-(trifluoromethyl)pyridin-4-yl)methyl)-1,2,3,4-tetrahydro-5H-pyrido[4,3-b]indole-5-carboxamide] | 0.1 µM | 0.7 µM | 100%
5 | N#Cc1ccc2c(c1)c1c(n2C(=O)NCc2ccnc(F)c2)CCN(C/C=C/c2ccc(Cl)c(Cl)c2)C1 [Example 122, (E)-8-cyano-2-(3-(3,4-dichlorophenyl)allyl)-N-((2-fluoropyridin-4-yl)methyl)-1,2,3,4-tetrahydro-5H-pyrido[4,3-b]indole-5-carboxamide] | 1 µM | 18.2 µM | 100%
6 | N#Cc1ccc(/C=C/CN2CCc3c(c4ccc(C(F)(F)F)cc4n3C(=O)NCc3ccnc(Cl)c3)C2)cc1 [Example 155, (E)-N-((2-chloropyridin-4-yl)methyl)-2-(3-(4-cyanophenyl)allyl)-7-(trifluoromethyl)-1,2,3,4-tetrahydro-5H-pyrido[4,3-b]indole-5-carboxamide] | 1 µM | 22.6 µM | 100%
7 | O=C(NCc1ccnc(Cl)c1)n1c2c(c3ccc(Cl)cc31)CN(C/C=C/c1ccc(F)c(F)c1)CC2 [Example 211, (E)-7-chloro-N-((2-chloropyridin-4-yl)methyl)-2-(3-(3,4-difluorophenyl)allyl)-1,2,3,4-tetrahydro-5H-pyrido[4,3-b]indole-5-carboxamide] | 1 µM | 10 µM | 100%
8 | O=C(NCc1ccnc(Cl)c1)n1c2c(c3c(Cl)c(F)ccc31)CN(C/C=C/c1ccc(F)cc1)CC2 [Example 307, (E)-9-chloro-N-((2-chloropyridin-4-yl)methyl)-8-fluoro-2-(3-(4-fluorophenyl)allyl)-1,2,3,4-tetrahydro-5H-pyrido[4,3-b]indole-5-carboxamide] | 0.5 µM | 3.3 µM | 100%
9 | N#Cc1ccc2c3c(n(C(=O)NCc4ccnc(Cl)c4)c2c1)CCN(C/C=C/c1ccc(F)c(F)c1F)C3 [Example 13, (E)-N-((2-chloropyridin-4-yl)methyl)-7-cyano-2-(3-(2,3,4-trifluorophenyl)allyl)-1,2,3,4-tetrahydro-5H-pyrido[4,3-b]indole-5-carboxamide] | 1.8 µM | 10 µM | 100%
10 | N#Cc1ccc2c3c(n(C(=O)NCc4ccnc(Cl)c4)c2c1)CCN(C/C=C/c1cccc(F)c1F)C3 [Example 32, (E)-N-((2-chloropyridin-4-yl)methyl)-7-cyano-2-(3-(2,3-difluorophenyl)allyl)-1,2,3,4-tetrahydro-5H-pyrido[4,3-b]indole-5-carboxamide] | 1.8 µM | 18.2 µM | 100%
11 | N#Cc1ccc2c3c(n(C(=O)NCc4ccnc(Cl)c4)c2c1)CCN(C/C=C/c1ccc(F)cc1)C3 [Example 36, (E)-N-((2-chloropyridin-4-yl)methyl)-7-cyano-2-(3-(4-fluorophenyl)allyl)-1,2,3,4-tetrahydro-5H-pyrido[4,3-b]indole-5-carboxamide] | 5.7 µM | 3.3 µM | 100%
12 | N#Cc1ccc(/C=C/CN2CCc3c(c4cc(F)c(OC(F)(F)F)cc4n3C(=O)NCc3ccnc(Cl)c3)C2)cc1 [Example 470, (E)-N-((2-chloropyridin-4-yl)methyl)-2-(3-(4-cyanophenyl)allyl)-8-fluoro-7-(trifluoromethoxy)-1,2,3,4-tetrahydro-5H-pyrido[4,3-b]indole-5-carboxamide] | 1 µM | 13.5 µM | 100%
13 | N#Cc1ccc(/C=C/CN2CCc3c(c4cc(C(F)(F)F)ccc4n3C(=O)NCc3ccnc(F)c3)C2)cc1 [Example 420, (E)-2-(3-(4-cyanophenyl)allyl)-N-((2-fluoropyridin-4-yl)methyl)-8-(trifluoromethyl)-1,2,3,4-tetrahydro-5H-pyrido[4,3-b]indole-5-carboxamide] | 2.8 µM | 14.1 µM | 100%
14 | N#Cc1ccc2c(c1)c1c(n2C(=O)NCc2ccnc(F)c2)CCN(C/C=C/c2ccc(F)cc2)C1 [Example 123, (E)-8-cyano-2-(3-(4-fluorophenyl)allyl)-N-((2-fluoropyridin-4-yl)methyl)-1,2,3,4-tetrahydro-5H-pyrido[4,3-b]indole-5-carboxamide] | 0.3 µM | 10 µM | 100%
15 | CS(=O)(=O)c1ccc2c(c1)c1c(n2C(=O)NCc2ccnc(Cl)c2)CCN(C/C=C/c2ccc(F)cc2)C1 [Example 459, (E)-N-((2-chloropyridin-4-yl)methyl)-2-(3-(4-fluorophenyl)allyl)-8-(methylsulfonyl)-1,2,3,4-tetrahydro-5H-pyrido[4,3-b]indole-5-carboxamide] | 1 µM | 5.7 µM | 92%
16 | N#Cc1ccc2c3c(n(C(=O)NCc4ccnc(Cl)c4)c2c1)CCN(C/C=C/c1ccc(Cl)c(F)c1)C3 [Example 2, (E)-2-(3-(4-chloro-3-fluorophenyl)allyl)-N-((2-chloropyridin-4-yl)methyl)-7-cyano-1,2,3,4-tetrahydro-5H-pyrido[4,3-b]indole-5-carboxamide] | 1.6 µM | 4.8 µM | 100%
